# Experiments:
# Type in all cases: in vivo
# [1] = system: barnyardgrass (Echinochloa crus-galli); assay: Test A preemergence, barnyardgrass; details: 0 to 100 scale
# Source text: (§1) Seeds of plant species selected from barnyardgrass (Echinochloa crus-galli), crabgrass (large crabgrass, Digitaria sanguinalis), kochia (Kochia scoparia), ragweed (common ragweed, Ambrosia elatior), morningglory (Ipomoea spp.), velvetleaf (Abutilon theophrasti), ryegrass, It. (Italian ryegrass, Lolium multiflorum), foxtail, giant (giant foxtail, Setaria faberii), wheat (Triticum aestivum), corn (Zea mays), and pigweed (Amaranthus retroflexus), were planted into a blend of loam soil and sand and treated preemergence with a directed soil spray using test chemicals formulated in a non-phytotoxic solvent mixture which included a surfactant. At the same time, plants selected from these crop and weed species and also blackgrass (Alopecurus myosuroides), and galium (catchweed bedstraw, Galium aparine), were planted in pots containing the same blend of loam soil and sand and treated with postemergence applications of test chemicals formulated in the same manner. Plants ranged in height from 2 to 10 cm and were in the one- to two-leaf stage for the postemergence treatment. Treated plants and untreated controls were maintained in a greenhouse for approximately 10 d, after which time all treated plants were compared to untreated controls and visually evaluated for injury. Plant response ratings, summarized in Table A, are based on a 0 to 100 scale where 0 is no effect and 100 is complete control. A dash (-) response means no test result.
# kochia (Kochia scoparia) [2] = assay: Test A preemergence, kochia; details: 0 to 100 scale
# Source text: as §1
# [3] = system: ragweed (common ragweed, Ambrosia elatior); assay: Test A preemergence, ragweed; details: 0 to 100 scale
# Source text: as §1
# [4] = system: ryegrass, It. (Italian ryegrass, Lolium multiflorum); assay: Test A preemergence, ryegrass, It.; details: 0 to 100 scale
# Source text: as §1
# [5] = system: foxtail, giant (giant foxtail, Setaria faberii); assay: Test A preemergence, foxtail, giant; details: 0 to 100 scale
# Source text: as §1
# [6] = system: pigweed (Amaranthus retroflexus); assay: Test A preemergence, pigweed; details: 0 to 100 scale
# Source text: as §1
# [7] = system: barnyardgrass (Echinochloa crus-galli); assay: Test A postemergence, barnyardgrass; details: 0 to 100 scale
# Source text: as §1
# kochia (Kochia scoparia) [8] = assay: Test A postemergence, kochia; details: 0 to 100 scale
# Source text: as §1
# [9] = system: ragweed (common ragweed, Ambrosia elatior); assay: Test A postemergence, ragweed; details: 0 to 100 scale
# Source text: as §1
# [10] = system: ryegrass, It. (Italian ryegrass, Lolium multiflorum); assay: Test A postemergence, ryegrass, It.; details: 0 to 100 scale
# Source text: as §1
# [11] = system: foxtail, giant (giant foxtail, Setaria faberii); assay: Test A postemergence, foxtail, giant; details: 0 to 100 scale
# Source text: as §1
# [12] = system: wheat (Triticum aestivum); assay: Test A postemergence, wheat; details: 0 to 100 scale
# Source text: as §1
# corn (Zea mays) = assay: Test A postemergence, corn; details: 0 to 100 scale
# Source text: as §1
# [13] = system: pigweed (Amaranthus retroflexus); assay: Test A postemergence, pigweed; details: 0 to 100 scale
# Source text: as §1
# [14] = system: blackgrass (Alopecurus myosuroides); assay: Test A postemergence, blackgrass; details: 0 to 100 scale
# Source text: as §1
# [15] = system: galium (catchweed bedstraw, Galium aparine); assay: Test A postemergence, galium; details: 0 to 100 scale
# Source text: as §1
# [16] = system: barnyardgrass (Echinochloa crus-galli); assay: Test B flooded paddy test, barnyardgrass; details: Flood, scale of 0 to 100 where 0 is no effect and 100 is complete control, 13 to 15 d
# Experimental: (§2) Plant species in the flooded paddy test selected from rice (Oryza sativa), sedge, umbrella (small-flower umbrella sedge, Cyperus difformis), ducksalad (Heteranthera limosa), and barnyardgrass (Echinochloa crus-galli) were grown to the 2-leaf stage for testing. At time of treatment, test pots were flooded to 3 cm above the soil surface, treated by application of test compounds directly to the paddy water, and then maintained at that water depth for the duration of the test. Treated plants and controls were maintained in a greenhouse for 13 to 15 d, after which time all species were compared to controls and visually evaluated. Plant response ratings, summarized in Table B, are based on a scale of 0 to 100 where 0 is no effect and 100 is complete control. A dash (-) response means no test result.
# [17] = system: ducksalad (Heteranthera limosa); assay: Test B flooded paddy test, ducksalad; details: Flood, scale of 0 to 100 where 0 is no effect and 100 is complete control, 13 to 15 d
# Experimental: as §2
# rice (Oryza sativa) = assay: Test B flooded paddy test, rice; details: Flood, scale of 0 to 100 where 0 is no effect and 100 is complete control, 13 to 15 d
# Experimental: as §2
# [18] = system: sedge, umbrella (small-flower umbrella sedge, Cyperus difformis); assay: Test B flooded paddy test, sedge, umbrella; details: Flood, scale of 0 to 100 where 0 is no effect and 100 is complete control, 13 to 15 d
# Experimental: as §2
SMILES,"Plant response rating, Barnyardgrass ([1]; 125 g ai/ha)","Plant response rating, Barnyardgrass ([1]; 500 g ai/ha)","Plant response rating, Kochia (kochia (Kochia scoparia) [2]; 125 g ai/ha)","Plant response rating, Kochia (kochia (Kochia scoparia) [2]; 500 g ai/ha)","Plant response rating, Ragweed ([3]; 125 g ai/ha)","Plant response rating, Ragweed ([3]; 500 g ai/ha)","Plant response rating, Ryegrass, It. ([4]; 125 g ai/ha)","Plant response rating, Ryegrass, It. ([4]; 500 g ai/ha)","Plant response rating, Foxtail, Giant ([5]; 125 g ai/ha)","Plant response rating, Foxtail, Giant ([5]; 500 g ai/ha)","Plant response rating, Pigweed ([6]; 125 g ai/ha)","Plant response rating, Pigweed ([6]; 500 g ai/ha)","Plant response rating, Barnyardgrass ([7]; 125 g ai/ha)","Plant response rating, Barnyardgrass ([7]; 500 g ai/ha)","Plant response rating, Ragweed ([9]; 125 g ai/ha)","Plant response rating, Ragweed ([9]; 500 g ai/ha)","Plant response rating, Ryegrass, It. ([10]; 125 g ai/ha)","Plant response rating, Ryegrass, It. ([10]; 500 g ai/ha)","Plant response rating, Foxtail, Giant ([11]; 125 g ai/ha)","Plant response rating, Foxtail, Giant ([11]; 500 g ai/ha)",further results
O=C1NCC(Cc2ccccc2C(F)(F)F)C1C(=O)Nc1ccccc1C(F)(F)F (centres unmarked) [Compound 5],0,0,0,0,0,0,0,0,0,0,0,0,0,0,0,0,0,0,0,0,"Plant response rating, Kochia (kochia (Kochia scoparia) [8]; 125 g ai/ha): 0; Plant response rating, Kochia (kochia (Kochia scoparia) [8]; 500 g ai/ha): 0; Plant response rating, Wheat ([12]; 125 g ai/ha): 0; Plant response rating, Wheat ([12]; 500 g ai/ha): 0; Plant response rating, Corn (corn (Zea mays); 125 g ai/ha): 0; Plant response rating, Corn (corn (Zea mays); 500 g ai/ha): 0; Plant response rating, Pigweed ([13]; 125 g ai/ha): 0; Plant response rating, Pigweed ([13]; 500 g ai/ha): 0; Plant response rating, Blackgrass ([14]; 125 g ai/ha): 0; Plant response rating, Blackgrass ([14]; 500 g ai/ha): 0; Plant response rating, Galium ([15]; 125 g ai/ha): 0; Plant response rating, Galium ([15]; 500 g ai/ha): 0; Plant response rating, Barnyardgrass ([16]; 500 g ai/ha): 0; Plant response rating, Ducksalad ([17]; 500 g ai/ha): 0; Plant response rating, Rice (rice (Oryza sativa); 500 g ai/ha): 0; Plant response rating, Sedge, Umbrella ([18]; 500 g ai/ha): 0"
O=C1NCC(/C=C/c2cccc(F)c2)C1C(=O)Nc1ccccc1F (centres unmarked) [Compound 24],30,70,0,20,0,30,0,0,60,90,0,0,0,70,0,0,0,0,30,80,"Plant response rating, Wheat ([12]; 125 g ai/ha): 0; Plant response rating, Wheat ([12]; 500 g ai/ha): 0; Plant response rating, Corn (corn (Zea mays); 125 g ai/ha): 0; Plant response rating, Corn (corn (Zea mays); 500 g ai/ha): 0; Plant response rating, Pigweed ([13]; 125 g ai/ha): 0; Plant response rating, Pigweed ([13]; 500 g ai/ha): 0; Plant response rating, Blackgrass ([14]; 125 g ai/ha): 0; Plant response rating, Blackgrass ([14]; 500 g ai/ha): 0; Plant response rating, Galium ([15]; 125 g ai/ha): 0; Plant response rating, Galium ([15]; 500 g ai/ha): 0; Plant response rating, Barnyardgrass ([16]; 250 g ai/ha): 70; Plant response rating, Ducksalad ([17]; 250 g ai/ha): 90; Plant response rating, Rice (rice (Oryza sativa); 250 g ai/ha): 0; Plant response rating, Sedge, Umbrella ([18]; 250 g ai/ha): 0"
O=C1NCC(/C=C/c2ccc(F)cc2)C1C(=O)Nc1ccccc1F (centres unmarked) [Compound 27],0,50,0,40,0,30,0,20,0,60,0,0,0,60,0,0,0,0,0,70,"Plant response rating, Wheat ([12]; 125 g ai/ha): 0; Plant response rating, Wheat ([12]; 500 g ai/ha): 0; Plant response rating, Corn (corn (Zea mays); 125 g ai/ha): 0; Plant response rating, Corn (corn (Zea mays); 500 g ai/ha): 0; Plant response rating, Pigweed ([13]; 125 g ai/ha): 0; Plant response rating, Pigweed ([13]; 500 g ai/ha): 20; Plant response rating, Blackgrass ([14]; 125 g ai/ha): 0; Plant response rating, Blackgrass ([14]; 500 g ai/ha): 0; Plant response rating, Galium ([15]; 125 g ai/ha): 0; Plant response rating, Galium ([15]; 500 g ai/ha): 0; Plant response rating, Barnyardgrass ([16]; 250 g ai/ha): 0; Plant response rating, Ducksalad ([17]; 250 g ai/ha): 80; Plant response rating, Rice (rice (Oryza sativa); 250 g ai/ha): 0; Plant response rating, Sedge, Umbrella ([18]; 250 g ai/ha): 0"

# Reference: patent publication US10906873B2, “Substituted cyclic amides as herbicides” (FMC Corporation, priority 2015, dated 2021)
